# Assay results taken from ChEMBL document CHEMBL1156516, “Protein kinase C epsilon regulates gamma-aminobutyrate type A receptor sensitivity to ethanol and benzodiazepines through phosphorylation of gamma2 subunits” (J Biol Chem, 2007).
# Numbering of substitutions follows the chain as printed. Activity calls are given as the source filed them. The calls are words filed in the database; no cut-off is given here.
# How the values were obtained:
# [1] = molecular target: T1, GABA-A receptor; alpha-1/beta-2/gamma-2 (Homo sapiens) (UniProt P14867+P47870+P18507); conditions: HEK293
# HEK293 [2] = conditions: Homo sapiens
# [3] = molecular target: T2, Gamma-aminobutyric acid receptor subunit alpha-1 (Homo sapiens) (UniProt P14867); conditions: HEK293
# T2 sequence (whole entry): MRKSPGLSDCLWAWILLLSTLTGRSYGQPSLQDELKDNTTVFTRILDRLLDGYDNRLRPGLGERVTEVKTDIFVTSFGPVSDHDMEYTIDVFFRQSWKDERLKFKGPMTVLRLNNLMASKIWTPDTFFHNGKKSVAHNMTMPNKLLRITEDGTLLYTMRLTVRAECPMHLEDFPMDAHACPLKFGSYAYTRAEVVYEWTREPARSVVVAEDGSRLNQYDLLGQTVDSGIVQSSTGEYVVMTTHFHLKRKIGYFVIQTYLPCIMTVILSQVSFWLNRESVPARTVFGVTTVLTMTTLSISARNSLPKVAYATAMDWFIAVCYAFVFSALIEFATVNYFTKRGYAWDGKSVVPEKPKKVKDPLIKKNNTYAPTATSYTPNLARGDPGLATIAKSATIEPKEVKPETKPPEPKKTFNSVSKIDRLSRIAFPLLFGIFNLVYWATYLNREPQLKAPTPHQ
# HEK293 [4] = conditions: Homo sapiens; remark: listed apart in the source
# [5] = molecular target: T1, GABA-A receptor; alpha-1/beta-2/gamma-2 (Homo sapiens); conditions: HEK293; remark: listed apart in the source
# [6] = molecular target: Protein kinase C delta type (Homo sapiens, UniProt Q05655); experiment: Inhibition of human PKCdelta
# Sequence of Protein kinase C delta type (Q05655 whole entry): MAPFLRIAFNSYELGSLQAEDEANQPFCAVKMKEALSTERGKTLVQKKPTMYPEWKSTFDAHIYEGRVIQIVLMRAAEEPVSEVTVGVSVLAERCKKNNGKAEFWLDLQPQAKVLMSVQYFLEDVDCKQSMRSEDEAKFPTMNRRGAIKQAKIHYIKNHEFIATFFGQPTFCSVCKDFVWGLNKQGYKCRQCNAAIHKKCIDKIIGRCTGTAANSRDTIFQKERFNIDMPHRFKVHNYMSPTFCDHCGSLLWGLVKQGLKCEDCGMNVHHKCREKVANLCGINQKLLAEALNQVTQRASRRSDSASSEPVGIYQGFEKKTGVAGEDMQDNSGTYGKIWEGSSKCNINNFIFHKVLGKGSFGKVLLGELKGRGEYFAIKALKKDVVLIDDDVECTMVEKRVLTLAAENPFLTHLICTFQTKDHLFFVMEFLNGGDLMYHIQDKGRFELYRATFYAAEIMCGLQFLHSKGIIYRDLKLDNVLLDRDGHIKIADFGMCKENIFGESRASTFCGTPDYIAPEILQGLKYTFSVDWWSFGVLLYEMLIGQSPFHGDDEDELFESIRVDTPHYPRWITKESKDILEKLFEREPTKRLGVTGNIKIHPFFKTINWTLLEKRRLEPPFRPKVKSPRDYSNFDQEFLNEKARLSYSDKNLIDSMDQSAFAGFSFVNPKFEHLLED
# [7] = molecular target: T3, Protein kinase C epsilon type (Homo sapiens, UniProt Q02156); experiment: Inhibition of human PKCepsilon
# T3 sequence (Q02156 whole entry): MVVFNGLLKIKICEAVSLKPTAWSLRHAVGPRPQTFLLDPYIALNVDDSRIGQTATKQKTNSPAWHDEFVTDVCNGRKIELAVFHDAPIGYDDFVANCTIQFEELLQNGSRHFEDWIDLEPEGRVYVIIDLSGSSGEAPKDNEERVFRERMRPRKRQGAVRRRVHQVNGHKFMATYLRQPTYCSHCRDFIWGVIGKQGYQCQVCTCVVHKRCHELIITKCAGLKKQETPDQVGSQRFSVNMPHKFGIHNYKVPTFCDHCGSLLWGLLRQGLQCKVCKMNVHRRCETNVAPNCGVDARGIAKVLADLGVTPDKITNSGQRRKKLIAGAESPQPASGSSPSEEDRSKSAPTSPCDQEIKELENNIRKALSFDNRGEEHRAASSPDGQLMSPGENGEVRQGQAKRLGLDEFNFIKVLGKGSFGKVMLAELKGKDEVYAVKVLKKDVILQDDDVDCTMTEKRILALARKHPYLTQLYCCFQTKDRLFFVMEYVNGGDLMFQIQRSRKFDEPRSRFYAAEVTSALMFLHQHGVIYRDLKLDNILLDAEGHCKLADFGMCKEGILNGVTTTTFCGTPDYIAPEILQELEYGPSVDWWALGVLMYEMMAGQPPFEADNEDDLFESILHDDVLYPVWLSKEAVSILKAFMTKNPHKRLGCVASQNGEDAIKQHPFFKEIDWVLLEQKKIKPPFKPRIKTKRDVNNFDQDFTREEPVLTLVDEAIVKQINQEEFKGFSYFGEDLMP
# [8] = molecular target: Protein kinase C gamma type (Homo sapiens, UniProt P05129); experiment: Inhibition of human PKCgamma
# [9] = molecular target: Protein kinase C epsilon type (Homo sapiens, UniProt Q02156, M486A); experiment: (§1) Inhibition of human PKCepsilon type M486A mutant
# Sequence of Protein kinase C epsilon type (Homo sapiens, UniProt Q02156, M486A) (Q02156 whole entry M486A): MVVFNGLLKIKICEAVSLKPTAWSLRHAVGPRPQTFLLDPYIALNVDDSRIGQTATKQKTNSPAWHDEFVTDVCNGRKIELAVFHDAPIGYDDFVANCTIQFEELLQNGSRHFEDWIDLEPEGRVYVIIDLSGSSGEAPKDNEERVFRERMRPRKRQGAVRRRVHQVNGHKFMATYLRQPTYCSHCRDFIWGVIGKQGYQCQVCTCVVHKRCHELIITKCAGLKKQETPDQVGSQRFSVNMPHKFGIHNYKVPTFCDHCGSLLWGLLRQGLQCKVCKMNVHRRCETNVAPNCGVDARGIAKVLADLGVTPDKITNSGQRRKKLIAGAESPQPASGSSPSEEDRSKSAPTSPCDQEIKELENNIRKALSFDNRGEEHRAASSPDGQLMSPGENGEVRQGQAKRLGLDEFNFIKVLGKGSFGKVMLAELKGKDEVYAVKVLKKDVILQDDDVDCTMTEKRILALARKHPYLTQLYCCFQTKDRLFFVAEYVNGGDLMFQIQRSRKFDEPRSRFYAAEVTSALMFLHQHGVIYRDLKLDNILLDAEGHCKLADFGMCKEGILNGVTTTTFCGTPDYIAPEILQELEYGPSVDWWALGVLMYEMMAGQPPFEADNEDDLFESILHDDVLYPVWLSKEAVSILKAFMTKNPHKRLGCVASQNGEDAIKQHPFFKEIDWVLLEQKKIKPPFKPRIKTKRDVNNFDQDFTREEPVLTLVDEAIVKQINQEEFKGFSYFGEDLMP
# HEK293 [10] = experiment: Activity of human GABA alpha-1-beta-2-gamma-2L S327A mutant in HEK293 cells expressing as-PKCepsilon assessed as inhibition of ethanol induced GABA current at 30 uM; format: cell-based
# Mus musculus [11] = species: Mus musculus; experiment: Activity of human GABA alpha-1-beta-2-gamma-2S327 receptor in wild type mouse assessed as ethanol induced GABA current
# [12] = tested on: T4, Protein kinase C epsilon type (Homo sapiens), Q02156 [M486A]; experiment: as §1
# T4 sequence (whole entry): T3 sequence (Q02156 whole entry) with M486A
# Mus musculus [13] = experiment: Induction of rotarod ataxia in PKCepsilon deficient mouse at 1 mg/kg; format: functional, organism-based; design: dose 1 mg/kg
# HEK293 [14] = experiment: Activity of human GABA alpha-1-beta-2-gamma-2S327 receptor in HEK293 cells expressing as-PKCepsilon cells assessed as induction of ethanol induced GABA current; format: cell-based
smiles,measurement,setting,value
CN1C(=O)CN=C(c2ccccc2F)c2cc([N+](=O)[O-])ccc21,logEC50,[1],1.46
same,logEC50,HEK293 [2],1.8
same,logEC50,[3],1.99
same,logEC50,HEK293 [4],1.59
same,logEC50,[5],1.46
CN(C)CCCn1cc(C2=C(c3c[nH]c4ccccc34)C(=O)NC2=O)c2ccccc21 [GF-109203],IC50,[6],32 nM
same,IC50,[7],6 nM
same,IC50,[8],30 nM
same,IC50,[9],12 nM
CN1CCc2cc3c(cc2[C@H]1[C@@H]1OC(=O)c2c1ccc1c2OCO1)OCO3,Activity,HEK293 [10],Active
CN1C(=O)CN=C(c2ccccc2)c2cc(Cl)ccc21,Activity,Mus musculus [11],75%
Cc1ccc(-c2nc3ccc(C)cn3c2CC(=O)N(C)C)cc1,Activity,[12],Active
same,Activity,Mus musculus [13],Active
CC(C)(C)n1nc(-c2cccc3ccccc23)c2c(N)ncnc21,IC50,[6],> 100000 nM
same,IC50,[7],> 100000 nM
same,IC50,[8],> 100000 nM
same,IC50,[9],21 nM
same,Activity,HEK293 [14],Active
